Measured values reported in patent US20090270431A1, “Cyclopentenol Nucleoside Compounds Intermediates for their Synthesis and Methods of Treating Viral Infections” (THE UNIVERSITY OF GEORGIA RESEARCH FOUNDATION, priority 2005, published 2009).
pEC50: −log10 of the molar value. “And” between values parts separate entries of the source, which are not always exact repeats. Identical values can stand only once. Like-named read-outs stand apart in the source and are kept apart here.

What was measured:
Cowpox = test: microbe, parasite or virus in culture; assay type: cell-based, cowpox virus; details: Cowpox; CPE; HFF Cells (Table 3); read-out: EC50
Vaccinia = test: microbe, parasite or virus in culture; assay type: cell-based, vaccinia virus; details: VV; CPE; HFF Cells (Table 3); read-out: EC50
Hepatitis B Virus = test: in vitro anti-HBV activity, VIR (extracellular virion HBV DNA); assay type: cell-based; details: HBV; VIR; Huh7 ET (Table 3)
Protocol: In the first biological experiment, a number of 7-deazaneplanocin compounds were tested in vitro to determine activity against hepatitis B virus (HBV).

SARS = test: organism not typed; assay type: cell-based; details: SARS, Vero 76, read-out: EC50
Flu A (H1N1) = test: microbe, parasite or virus in culture; assay type: cell-based; details: MDCK, read-out: EC50
Flu A (H3N2) = test: microbe, parasite or virus in culture; assay type: cell-based; details: Flu A (H3N2), MDCK, read-out: EC50
Flu A (H5N1) = test: microbe, parasite or virus in culture; assay type: cell-based; details: Flu A (H5N1), MDCK, read-out: EC50
Flu B = assay type: cell-based; details: MDCK
Yellow Fever = test: organism not typed; assay type: cell-based; details: YF, Vero, read-out: EC50
Tacaribe = assay type: cell-based; details: Vero 76
Dengue = test: antiviral assay, Dengue in Vero; assay type: cell-based
VEE = assay type: cell-based
RVF = assay type: cell-based

## Nc1nccc2ncn([C@@H]3C=C(CO)[C@@H](O)[C@H]3O)c12 [Compound N7-3-DNPA]
Cowpox
  pEC50: 3.56
Vaccinia
  pEC50: < 3.52
Hepatitis B Virus
  pEC50: < 5.00
SARS; NR (Neutral Red)
  pEC50: < 4.00
SARS; Visual
  pEC50: < 4.00
Flu A (H1N1); NR
  pEC50: < 4.49
Flu A (H1N1); Visual
  pEC50: < 4.49
Flu A (H3N2); NR
  pEC50: < 4.49
Flu A (H3N2); Visual
  pEC50: < 4.49
Flu A (H5N1); NR
  pEC50: 4.54
Flu A (H5N1); Visual
  pEC50: 4.49
Flu B; NR
  pEC50: 4.47
Flu B; Visual
  pEC50: 5.10
Yellow Fever; NR
  pEC50: < 4.00
Yellow Fever; Visual
  pEC50: < 4.00
Tacaribe; NR
  pEC50: 4.07
Tacaribe; Visual
  pEC50: 4.28
Dengue; NR
  pEC50: < 4.00
Dengue; Visual
  pEC50: < 4.00
VEE
  pEC50: 4.07 and < 4.00
RVF
  pEC50: < 4.00
